Measurements from publication PMC4126345, “Large-scale filament formation inhibits the activity of CTP synthetase” (eLife, 2014).

What was measured:
CTP synthetase (CtpS) [1] = target: T1, CTP synthetase (CtpS) (Escherichia coli, UniProt P0A7E5); experiment: CTP production (transmittance at […] nm) and light scattering of purified CtpS with DON; type: biochemical
T1 construct: gene pyrG; full-length

CTP synthetase (CtpS) [2] = target: T1, CTP synthetase (CtpS); experiment: cryo-EM difference density in the CtpS filament ([…] Å); type: binding
CTP synthetase (CtpS) [3] = target: T1, CTP synthetase (CtpS); experiment: purified enzyme turnover; ATP with UTP depolymerizes and reactivates CtpS (light scattering and activity); type: biochemical
[4] = target: T2, CTP synthetase (CtpS E277R) (Escherichia coli, UniProt P0A7E5, E277R); experiment: CTP inhibition of CTP synthesis by purified enzyme (absorbance at […] nm), […] enzyme; type: biochemical
T2 construct: gene pyrG; full-length, 6XHis tag not cleaved
T2 sequence (P0A7E5 2-545 E277R): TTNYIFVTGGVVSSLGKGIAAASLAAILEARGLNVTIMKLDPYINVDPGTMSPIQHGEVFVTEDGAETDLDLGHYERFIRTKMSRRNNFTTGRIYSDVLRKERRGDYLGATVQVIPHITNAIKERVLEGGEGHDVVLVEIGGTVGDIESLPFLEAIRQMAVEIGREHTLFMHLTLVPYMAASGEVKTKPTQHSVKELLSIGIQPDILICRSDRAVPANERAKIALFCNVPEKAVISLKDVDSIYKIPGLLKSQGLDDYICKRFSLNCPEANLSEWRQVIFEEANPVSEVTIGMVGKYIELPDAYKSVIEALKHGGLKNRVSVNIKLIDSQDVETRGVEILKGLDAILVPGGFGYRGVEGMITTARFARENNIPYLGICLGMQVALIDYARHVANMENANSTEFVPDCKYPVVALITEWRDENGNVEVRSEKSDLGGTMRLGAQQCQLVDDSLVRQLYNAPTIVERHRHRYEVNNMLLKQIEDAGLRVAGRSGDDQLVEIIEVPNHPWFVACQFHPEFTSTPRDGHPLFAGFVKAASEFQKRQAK

CTP synthetase (CtpS) [5] = target: T1, CTP synthetase (CtpS); experiment: purified enzyme turnover to CTP; UTP with ATP depolymerizes and reactivates CtpS (light scattering and activity); type: biochemical
CTP synthetase (CtpS) [6] = target: T1, CTP synthetase (CtpS); experiment: CTP production by purified enzyme initiated by glutamine; type: biochemical

T1 sequence (P0A7E5 2-545): as the sequence (P0A7E5 2-545 E277R) above, with R276E counted along it

## [N-]=[N+]=CC(=O)CC[C@H](N)C(=O)O [6-Diazo-5-oxo-L-norleucine]
CTP synthetase (CtpS) [1]
  CTP production (transmittance at 291 nm) and light scattering of purified CtpS w: When added to activity buffer, DON abolishes both CTP production and CtpS polymerization

## Nc1ncnc2c1ncn2[C@@H]1O[C@H](COP(=O)(O)OP(=O)(O)O)[C@@H](O)[C@H]1O [ADP]
CTP synthetase (CtpS) [2]
  cryo-EM difference density in the CtpS filament (8.4 Å): Similarly strong density is found in the difference map in the positions of bound ADP.

## Nc1ncnc2c1ncn2[C@@H]1O[C@H](COP(=O)(O)OP(=O)(O)OP(=O)(O)O)[C@@H](O)[C@H]1O [ATP]
CTP synthetase (CtpS) [3]
  purified enzyme turnover; ATP with UTP depolymerizes and reactivates CtpS (light): Addition of ATP and UTP depolymerized the sample.

## Nc1ccn([C@@H]2O[C@H](COP(=O)(O)OP(=O)(O)OP(=O)(O)O)[C@@H](O)[C@H]2O)c(=O)n1 [CTP]
[4]
  IC50: 833 µM

## O=c1ccn([C@@H]2O[C@H](CO[P@@](=O)(O)O[P@@](=O)(O)OP(=O)(O)O)[C@@H](O)[C@H]2O)c(=O)[nH]1 [UTP]
CTP synthetase (CtpS) [5]
  purified enzyme turnover to CTP; UTP with ATP depolymerizes and reactivates CtpS: Upon addition of these substrate nucleotides, we observed a sharp decrease in light scattering

## NC(=O)CC[C@H](N)C(=O)O [glutamine]
CTP synthetase (CtpS) [6]
  CTP production by purified enzyme initiated by glutamine: CTP production was then initiated by the addition of glutamine to form a complete activity buffer.
